Target: G protein-coupled receptor 88 (Homo sapiens, UniProt Q9GZN0)
Test: Agonist activity at GPR88 (unknown origin) transfected into cells assessed as cAMP accumulation by HTRF assay
Format: functional

G protein-coupled receptor 88, sequence (Q9GZN0 whole entry): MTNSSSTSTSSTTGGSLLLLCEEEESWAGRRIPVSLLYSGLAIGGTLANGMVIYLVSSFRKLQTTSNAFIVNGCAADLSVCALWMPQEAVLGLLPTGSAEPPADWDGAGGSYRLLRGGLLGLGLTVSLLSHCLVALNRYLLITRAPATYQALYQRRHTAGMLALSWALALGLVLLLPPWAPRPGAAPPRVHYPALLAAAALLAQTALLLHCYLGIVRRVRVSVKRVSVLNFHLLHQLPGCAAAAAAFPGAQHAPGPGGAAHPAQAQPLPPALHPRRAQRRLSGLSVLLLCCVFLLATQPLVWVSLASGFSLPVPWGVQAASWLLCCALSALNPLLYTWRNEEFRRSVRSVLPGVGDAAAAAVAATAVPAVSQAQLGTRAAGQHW

## CC[C@H](C)[C@H](N)CN(C(=O)[C@@H]1C[C@H]1c1ccc(OC)cc1)c1ccc(-c2ccccc2)cc1
  EC50: > 25000 nM

## CC[C@H](C)[C@H](N)CN(C(=O)[C@@H]1C[C@H]1c1cccc(Cl)c1)c1ccc(-c2ccccc2)cc1
  EC50: 2200 nM

## CC[C@H](C)[C@H](N)CN(C(=O)[C@@H]1C[C@H]1c1ccccc1Cl)c1ccc(-c2ccccc2)cc1
  EC50: > 25000 nM

## CC[C@H](C)[C@H](N)CN(C(=O)[C@@H]1C[C@H]1c1cccc(OC)c1)c1ccc(-c2ccccc2)cc1
  EC50: 3000 nM

## CC[C@H](C)[C@H](N)CN(C(=O)[C@@H]1C[C@H]1c1ccc(F)cc1)c1ccc(-c2ccccc2)cc1
  EC50: 600 nM

## CC[C@H](C)[C@H](N)CN(C(=O)[C@@H]1C[C@H]1c1cccc(F)c1)c1ccc(-c2ccccc2)cc1
  EC50: 560 nM

## CC[C@H](C)[C@H](N)CN(C(=O)[C@@H]1C[C@H]1c1ccccc1F)c1ccc(-c2ccccc2)cc1
  EC50: 650 nM

## CC[C@H](C)[C@H](N)CN(C(=O)[C@@H]1C[C@H]1c1cccc(C)c1)c1ccc(-c2ccccc2)cc1
  EC50: 1200 nM

## CC[C@H](C)[C@H](N)CN(C(=O)[C@@H]1C[C@H]1c1ccc(C#N)cc1)c1ccc(-c2ccccc2)cc1
  EC50: > 25000 nM

## CC[C@H](C)[C@H](N)CN(C(=O)[C@@H]1C[C@H]1c1cccc(C#N)c1)c1ccc(-c2ccccc2)cc1
  EC50: 1600 nM

## CC[C@H](C)[C@H](N)CN(C(=O)[C@@H]1C[C@H]1C1CCCCC1)c1ccc(-c2ccccc2)cc1
  EC50: > 25000 nM

## CC[C@H](C)[C@H](N)CN(C(=O)[C@@H]1C[C@H]1c1cc(F)ccc1F)c1ccc(-c2ccccc2)cc1
  EC50: 770 nM

## CC[C@H](C)[C@H](N)CN(C(=O)[C@@H]1C[C@H]1c1cc(F)cc(F)c1)c1ccc(-c2ccccc2)cc1
  EC50: 960 nM

## CC[C@H](C)[C@H](N)CN(C(=O)[C@@H]1C[C@H]1c1ccc(F)c(F)c1)c1ccc(-c2ccccc2)cc1
  EC50: 720 nM

## CC[C@H](C)[C@H](N)CN(C(=O)[C@@H]1C[C@H]1c1ccc(F)cc1F)c1ccc(-c2ccccc2)cc1
  EC50: 1300 nM

## CC[C@H](C)[C@H](N)CN(C(=O)[C@@H]1C[C@H]1c1c(F)cccc1F)c1ccc(-c2ccccc2)cc1
  EC50: 11000 nM

## CC[C@H](C)[C@H](N)CN(C(=O)[C@@H]1C[C@H]1c1ccccn1)c1ccc(-c2ccccc2)cc1
  EC50: 130 nM

## CC[C@H](C)[C@H](N)CN(C(=O)[C@@H]1C[C@H]1c1cccnc1)c1ccc(-c2ccccc2)cc1
  EC50: 1500 nM

## CC[C@H](C)[C@H](N)CN(C(=O)[C@@H]1C[C@H]1c1ccncc1)c1ccc(-c2ccccc2)cc1
  EC50: 1500 nM

## CC[C@H](C)[C@H](N)CN(C(=O)[C@@H]1C[C@H]1c1ncccn1)c1ccc(-c2ccccc2)cc1
  EC50: 130 nM

## CC[C@H](C)[C@H](N)CN(C(=O)[C@@H]1C[C@H]1c1cncnc1)c1ccc(-c2ccccc2)cc1
  EC50: 19000 nM

## CC[C@H](C)[C@H](N)CN(C(=O)[C@@H]1C[C@H]1c1nccs1)c1ccc(-c2ccccc2)cc1
  EC50: 210 nM

## CC[C@H](C)[C@H](N)CN(C(=O)[C@@H]1C[C@H]1c1cccs1)c1ccc(-c2ccccc2)cc1
  EC50: 360 nM

## CC[C@H](C)[C@H](N)CN(C(=O)[C@@H]1C[C@H]1c1ccsc1)c1ccc(-c2ccccc2)cc1
  EC50: 450 nM

## CC[C@H](C)[C@H](N)CN(C(=O)[C@@H]1C[C@H]1c1ccoc1)c1ccc(-c2ccccc2)cc1
  EC50: 580 nM

## CC[C@H](C)[C@H](N)CN(C(=O)[C@@H]1C[C@H]1c1nc(C)cs1)c1ccc(-c2ccccc2)cc1
  EC50: 730 nM

## CC[C@H](C)[C@H](N)CN(C(=O)[C@@H]1C[C@H]1c1ncc(C)s1)c1ccc(-c2ccccc2)cc1
  EC50: 1300 nM

## CC[C@H](C)[C@H](N)CN(C(=O)[C@@H]1C[C@H]1c1nc(C)c(C)s1)c1ccc(-c2ccccc2)cc1
  EC50: 3600 nM

## CC[C@H](C)[C@H](N)CN(C(=O)[C@@H]1C[C@H]1c1csc(C)n1)c1ccc(-c2ccccc2)cc1
  EC50: 1500 nM

## CC(C)C[C@H](N)CN(C(=O)[C@@H]1C[C@H]1c1ccccc1)c1cccc(-c2ccccc2)c1
  EC50: 23000 nM

## CC(C)C[C@H](N)CN(C(=O)[C@@H]1C[C@H]1c1ccccc1)c1ccccc1-c1ccccc1
  EC50: 6200 nM

## CC(C)C[C@H](N)CN(C(=O)[C@@H]1C[C@H]1c1ccccc1)c1ccc(-c2cccnc2)cc1
  EC50: 10000 nM

## CC(C)C[C@H](N)CN(C(=O)[C@@H]1C[C@H]1c1ccccc1)c1ccc(-c2ccncc2)cc1
  EC50: 13000 nM

## CC(C)C[C@H](N)CN(C(=O)[C@@H]1C[C@H]1c1ccccc1)c1ccc(-c2ccsc2)cc1
  EC50: 1200 nM

## CC(C)C[C@H](N)CN(C(=O)[C@@H]1C[C@H]1c1ccccc1)c1ccc(-c2cccs2)cc1
  EC50: 1500 nM

## CC(C)C[C@H](N)CN(C(=O)[C@@H]1C[C@H]1c1ccccc1)c1ccc(-c2ccoc2)cc1
  EC50: 2000 nM

## CC(C)C[C@H](N)CN(C(=O)[C@@H]1C[C@H]1c1ccccc1)c1ccc(C2=CCCC2)cc1
  EC50: 1200 nM

## CC(C)C[C@H](N)CN(C(=O)[C@@H]1C[C@H]1c1ccccc1)c1ccc(C2=CCCCCC2)cc1
  EC50: 2100 nM

## CC(C)C[C@H](N)CN(C(=O)[C@@H]1C[C@H]1c1ccccc1)c1ccc(C2=CCCCC2)cc1
  EC50: 1200 nM

## Cc1ccc(-c2ccc(N(C[C@@H](N)CC(C)C)C(=O)[C@@H]3C[C@H]3c3ccccc3)cc2)cc1
  EC50: 360 nM

## Cc1cccc(-c2ccc(N(C[C@@H](N)CC(C)C)C(=O)[C@@H]3C[C@H]3c3ccccc3)cc2)c1
  EC50: 1200 nM

## Cc1ccccc1-c1ccc(N(C[C@@H](N)CC(C)C)C(=O)[C@@H]2C[C@H]2c2ccccc2)cc1
  EC50: 3400 nM

## COc1ccc(-c2ccc(N(C[C@@H](N)CC(C)C)C(=O)[C@@H]3C[C@H]3c3ccccc3)cc2)cc1
  EC50: 330 nM

## COc1cccc(-c2ccc(N(C[C@@H](N)CC(C)C)C(=O)[C@@H]3C[C@H]3c3ccccc3)cc2)c1
  EC50: 1100 nM

## COc1ccccc1-c1ccc(N(C[C@@H](N)CC(C)C)C(=O)[C@@H]2C[C@H]2c2ccccc2)cc1
  EC50: 3200 nM

## CC(C)C[C@H](N)CN(C(=O)[C@@H]1C[C@H]1c1ccccc1)c1ccc(-c2ccc(F)cc2)cc1
  EC50: 900 nM

## CC(C)C[C@H](N)CN(C(=O)[C@@H]1C[C@H]1c1ccccc1)c1ccc(-c2cccc(F)c2)cc1
  EC50: 2100 nM

## CC(C)C[C@H](N)CN(C(=O)[C@@H]1C[C@H]1c1ccccc1)c1ccc(-c2ccccc2F)cc1
  EC50: 1600 nM

## CC(C)C[C@H](N)CN(C(=O)[C@@H]1C[C@H]1c1ccccc1)c1ccc(-c2ccc(C#N)cc2)cc1
  EC50: 670 nM

## CC(C)C[C@H](N)CN(C(=O)[C@@H]1C[C@H]1c1ccccc1)c1ccc(-c2cccc(C#N)c2)cc1
  EC50: 4500 nM

## CC(C)C[C@H](N)CN(C(=O)[C@@H]1C[C@H]1c1ccccc1)c1ccc(-c2ccc(Cl)cc2)cc1
  EC50: 640 nM

## CC(C)C[C@H](N)CN(C(=O)[C@@H]1C[C@H]1c1ccccc1)c1ccc(-c2ccccc2Cl)cc1
  EC50: 3800 nM

## CC[C@H](C)[C@H](N)CN(C(=O)[C@@H]1C[C@H]1c1ccccc1)c1ccc(-c2ccccc2)cc1
  EC50: 230 nM

## CCc1ccc(-c2ccc(N(C[C@@H](N)[C@@H](C)CC)C(=O)[C@@H]3C[C@H]3c3ccccc3)cc2)cc1
  EC50: 44 nM

## CCCc1ccc(-c2ccc(N(C[C@@H](N)[C@@H](C)CC)C(=O)[C@@H]3C[C@H]3c3ccccc3)cc2)cc1
  EC50: 61 nM

## CC[C@H](C)[C@H](N)CN(C(=O)[C@@H]1C[C@H]1c1ccccc1)c1ccc(-c2ccc(C(C)(C)C)cc2)cc1
  EC50: 750 nM

## CC[C@H](C)[C@H](N)CN(C(=O)[C@@H]1C[C@H]1c1ccccc1)c1ccc(-c2ccc(C(F)(F)F)cc2)cc1
  EC50: 340 nM

## CC[C@H](C)[C@H](N)CN(C(=O)[C@@H]1C[C@H]1c1ccccc1)c1ccc(-c2ccc(OC(C)C)cc2)cc1
  EC50: 72 nM

## CCOc1ccc(-c2ccc(N(C[C@@H](N)[C@@H](C)CC)C(=O)[C@@H]3C[C@H]3c3ccccc3)cc2)cc1
  EC50: 90 nM

## CC[C@H](C)[C@H](N)CN(C(=O)[C@@H]1C[C@H]1c1ccccc1)c1ccc(-c2ccc(OC)cc2)cc1
  EC50: 120 nM

## CC[C@H](C)[C@H](N)CN(C(=O)[C@@H]1C[C@H]1c1ccccc1)c1ccc(-c2ccc(Oc3ccccc3)cc2)cc1
  EC50: 94 nM

## CC[C@H](C)[C@H](N)CN(C(=O)[C@@H]1C[C@H]1c1ccccc1)c1ccc(-c2ccc(OC(F)(F)F)cc2)cc1
  EC50: 170 nM

## CC[C@H](C)[C@H](N)CN(C(=O)[C@@H]1C[C@H]1c1ccccc1)c1ccc(-c2ccc(COC)cc2)cc1
  EC50: 35 nM

## CC[C@H](C)[C@H](N)CN(C(=O)[C@@H]1C[C@H]1c1ccccc1)c1ccc(-c2ccc(COC(C)(C)C)cc2)cc1
  EC50: 280 nM

## CC[C@H](C)[C@H](N)CN(C(=O)[C@@H]1C[C@H]1c1ccccc1)c1ccc(-c2ccc(CO)cc2)cc1
  EC50: 1100 nM

## CC[C@H](C)[C@H](N)CN(C(=O)[C@@H]1C[C@H]1c1ccccc1)c1ccc(-c2ccc(CC(=O)OC)cc2)cc1
  EC50: 66 nM

## CC[C@H](C)[C@H](N)CN(C(=O)[C@@H]1C[C@H]1c1ccccc1)c1ccc(-c2ccc(CCC(=O)OC)cc2)cc1
  EC50: 110 nM

## CCOC(=O)c1ccc(-c2ccc(N(C[C@@H](N)[C@@H](C)CC)C(=O)[C@@H]3C[C@H]3c3ccccc3)cc2)cc1
  EC50: 260 nM

## CC[C@H](C)[C@H](N)CN(C(=O)[C@@H]1C[C@H]1c1ccccc1)c1ccc(-c2ccc(C(=O)N(C)C)cc2)cc1
  EC50: 980 nM

## CC[C@H](C)[C@H](N)CN(C(=O)[C@@H]1C[C@H]1c1ccccc1)c1ccc(-c2ccc(N)cc2)cc1
  EC50: 320 nM

## CC[C@H](C)[C@H](N)CN(C(=O)[C@@H]1C[C@H]1c1ccccc1)c1ccc(-c2ccc(NS(C)(=O)=O)cc2)cc1
  EC50: 1200 nM

## CC[C@H](C)[C@H](N)CN(C(=O)[C@@H]1C[C@H]1c1ccccc1)c1ccc(-c2ccc(NC(C)=O)cc2)cc1
  EC50: 5500 nM

## CC[C@H](C)[C@H](N)CN(C(=O)[C@@H]1C[C@H]1c1ccccc1)c1ccc(-c2ccc(CN(C)C)cc2)cc1
  EC50: 460 nM

## CC[C@H](C)[C@H](N)CN(C(=O)[C@@H]1C[C@H]1c1ccccc1)c1ccc(-c2ccc(CNC)cc2)cc1
  EC50: 6400 nM

## CC[C@H](C)[C@H](N)CN(C(=O)[C@@H]1C[C@H]1c1ccccc1)c1ccc(-c2ccc(CN)cc2)cc1
  EC50: > 30000 nM

## CC[C@H](C)[C@H](N)CN(C(=O)[C@H]1C[C@@H]1c1ccccn1)c1ccc(-c2ccc(COC)cc2)cc1
  EC50: 1200 nM

## CC[C@H](C)[C@H](N)CN(C(=O)[C@@H]1C[C@H]1c1ccccn1)c1ccc(-c2ccc(COC)cc2)cc1
  EC50: 15 nM

## CC[C@H](C)[C@H](N)CN(C(=O)[C@@H]1C[C@H]1c1ccccn1)c1ccc(-c2ccc(OC(C)C)cc2)cc1
  EC50: 3.5 nM
